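In this assay, cells in 96-well plates receive the compound at five concentrations for 48 hours. Endpoints are linearly interpolated between the surrounding concentrations. GI50 = concentration required for 50% inhibition of growth. TGI: concentration producing complete growth inhibition.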
Columns and labels:
Assay in all cases: inhibition of tumour cell growth, NCI panel, 48 h; in the data active = GI50 below about 0.43 µM; inactive = the rest
[1] = system: NCI-H522 lung
[2] = system: COLO 205 colon
[3] = system: UACC-257 melanoma
[4] = system: MDA-MB-435
[5] = system: SN12C renal
[6] = system: OVCAR-4 ovarian
[7] = system: HCT-15 colon
[8] = system: A498 renal
[9] = system: CAKI-1 renal
[10] = system: NCI-H226 lung
[11] = system: MALME-3M melanoma
[12] = system: SK-MEL-28 melanoma
[13] = system: SF-295 CNS
[14] = system: NCI-H460 lung
[15] = system: K-562 leukemia
[16] = system: HOP-92 NSCLC
[17] = system: SF-268 CNS
[18] = system: SNB-19 CNS
[19] = system: IGROV1 ovarian
[20] = system: BT-549 breast
[21] = system: HL-60(TB) leukemia
[22] = system: M14 melanoma
[23] = system: LOX IMVI melanoma
[24] = system: MCF7 breast
[25] = system: TK-10 renal
[26] = system: 786-0 renal
[27] = system: SNB-75 CNS
[28] = system: SK-OV-3 ovarian
[29] = system: OVCAR-5 ovarian
[30] = system: RXF 393 renal
[31] = system: MOLT-4 leukemia
[32] = system: SW-620 colon
[33] = system: NCI/ADR-RES ovarian
[34] = system: PC-3 prostate
[35] = system: ACHN renal
[36] = system: SK-MEL-5 melanoma
[37] = system: CCRF-CEM leukemia
[38] = system: SK-MEL-2 melanoma
[39] = system: T-47D breast
[40] = system: OVCAR-3 ovarian
[41] = system: HS 578T breast
[42] = system: A549 NSCLC
[43] = system: HCT-116 colon
[44] = system: DU-145 prostate
[45] = system: UO-31 renal
[46] = system: HT29 colon
[47] = system: U251 CNS
[48] = system: MDA-MB-231 breast
[49] = system: RPMI-8226 leukemia
[50] = system: OVCAR-8 ovarian
[51] = system: KM12 colon
[52] = system: HOP-62 NSCLC
[53] = system: HCC-2998 colon
[54] = system: NCI-H23 lung
[55] = system: SF-539 CNS
[56] = system: SR leukemia
[57] = system: UACC-62 melanoma

N=C1N=C(N)S/C1=C\c1ccc2ncccc2c1
> 25 µM: TGI [1] | TGI [2] | TGI [3] | TGI [4] | TGI [5] | TGI [6] | TGI [7] | TGI [8] | TGI [9] | TGI [10] | TGI [11] | TGI [12] | TGI [13] | TGI [14] | TGI [15] | TGI [16] | TGI [17] | TGI [18] | TGI [19] | TGI [20] | TGI [21] | TGI [22] | TGI [23] | TGI [24] | TGI [25] | TGI [26] | TGI [27] | TGI [28] | TGI [29] | TGI [30] | TGI [31] | TGI [32] | TGI [33] | TGI [34] | TGI [35] | TGI [36] | TGI [37] | TGI [38] | TGI [39] | TGI [40] | TGI [41] | TGI [42] | TGI [43] | TGI [44] | TGI [45] | TGI [46] | TGI [47] | TGI [48] | TGI [49] | TGI [50] | TGI [51] | TGI [52] | TGI [53] | TGI [54] | TGI [55] | TGI [56] | TGI [57]
inactive: GI50 [1] > 25 µM | GI50 [2] > 25 µM | GI50 [3] > 25 µM | GI50 [4] > 25 µM | GI50 [5] > 25 µM | GI50 [6] > 25 µM | GI50 [7] > 25 µM | GI50 [8] 13.7 µM | GI50 [9] > 25 µM | GI50 [10] > 25 µM | GI50 [11] > 25 µM | GI50 [12] > 25 µM | GI50 [13] > 25 µM | GI50 [14] > 25 µM | GI50 [15] > 25 µM | GI50 [16] > 25 µM | GI50 [17] > 25 µM | GI50 [18] > 25 µM | GI50 [19] > 25 µM | GI50 [20] > 25 µM | GI50 [21] > 25 µM | GI50 [22] > 25 µM | GI50 [23] > 25 µM | GI50 [24] > 25 µM | GI50 [25] > 25 µM | GI50 [26] > 25 µM | GI50 [27] > 16.3 µM | GI50 [28] > 25 µM | GI50 [29] > 25 µM | GI50 [30] > 25 µM | GI50 [31] > 25 µM | GI50 [32] > 25 µM | GI50 [33] > 25 µM | GI50 [34] > 25 µM | GI50 [35] > 25 µM | GI50 [36] > 25 µM | GI50 [37] > 25 µM | GI50 [38] > 25 µM | GI50 [39] > 25 µM | GI50 [40] > 25 µM | GI50 [41] > 19.1 µM | GI50 [42] > 25 µM | GI50 [43] > 25 µM | GI50 [44] > 25 µM | GI50 [45] > 25 µM | GI50 [46] > 25 µM | GI50 [47] > 25 µM | GI50 [48] > 25 µM | GI50 [49] > 25 µM | GI50 [50] > 25 µM | GI50 [51] > 25 µM | GI50 [52] > 25 µM | GI50 [53] > 25 µM | GI50 [54] > 25 µM | GI50 [55] > 25 µM | GI50 [56] > 25 µM | GI50 [57] > 25 µM

Source: PubChem BioAssay (NCI)
